From patent US20090048258A1, “Amide Compound” (priority 2005, published 2009)

Biological target: T1, Human DGAT1 (Homo sapiens, UniProt O75907)
T1 construct: my translation of the primer: M-G-DYKDDDD-GDRGSSRRR) (N); made in house; host or cells: Sf9 insect cells (recombinant baculovirus BAC-DGAT1, pFASTBAC1); microsome fraction
T1 sequence (O75907 1-488): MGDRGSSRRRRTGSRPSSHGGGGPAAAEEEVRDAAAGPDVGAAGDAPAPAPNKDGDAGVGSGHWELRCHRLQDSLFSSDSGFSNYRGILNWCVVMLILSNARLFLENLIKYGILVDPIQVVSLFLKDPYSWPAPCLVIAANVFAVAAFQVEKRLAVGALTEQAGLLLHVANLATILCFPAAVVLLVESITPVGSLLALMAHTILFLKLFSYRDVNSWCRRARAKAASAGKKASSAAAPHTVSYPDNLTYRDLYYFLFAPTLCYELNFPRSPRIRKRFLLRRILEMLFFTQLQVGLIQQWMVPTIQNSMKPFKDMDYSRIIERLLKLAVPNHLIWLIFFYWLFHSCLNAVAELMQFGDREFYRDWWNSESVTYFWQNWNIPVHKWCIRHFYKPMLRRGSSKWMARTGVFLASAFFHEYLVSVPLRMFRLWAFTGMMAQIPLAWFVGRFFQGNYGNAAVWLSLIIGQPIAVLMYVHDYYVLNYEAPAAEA
Test: DGAT inhibitory activity: [14C]-triglyceride synthesis by DGAT1 high expression Sf9 microsome
Assay type: biochemical
Settings: Table 1, 25 μM dioleoylglycerol, 25 μM [14C]-Oleoyl-CoA, 32° C., 15 min, read-out: DGAT inhibitory activity (according to IC50)
Procedure, shortened: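 DGAT1 was overexpressed from recombinant baculovirus in Sf9 cells, and microsomes from these cells were the enzyme source. Reactions ran in 100 mM Tris-HCl pH 7.5, 250 mM sucrose, 150 mM MgCl2 and 0.01% BSA. [14C]-triglyceride was extracted into chloroform, separated by TLC and quantified by imaging plate, with inhibition calculated against control and blank (no microsome) counts.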

First: CCOc1ccc(C(=O)CCC(=O)Nc2sc(-c3ccccc3)nc2-c2ccccc2)cc1OCC [Example 16, 4-(3,4-diethoxyphenyl)-N-(2,4-diphenyl-1,3-thiazol-5-yl)-4-oxobutanamide]
Second: CCOc1ccc(C(=O)CCC(=O)Nc2nc(-c3ccccc3)c(Cc3ccccc3)s2)cc1OCC [Example 3, N-(5-benzyl-4-phenyl-1,3-thiazol-2-yl)-4-(3,4-diethoxyphenyl)-4-oxobutanamide]
The IC50 of the first is higher: 50 to 500 nM for the first, ≤ 10 nM for the second.

CCOc1ccc(C(=O)CCC(=O)Nc2ncc(-c3ccccc3)cc2-c2ccccc2)cc1OCC [Example 13, 4-(3,4-diethoxyphenyl)-N-(3,5-diphenylpyridin-2-yl)-4-oxobutanamide] and CCOC(=O)/C=C/c1ccc(Cc2sc(NC(=O)CCC(=O)c3ccc(OCC)c(OCC)c3)cc2-c2ccccc2)cc1 [Example 51, ethyl (2E)-3-{4-[(5-{[4-(3,4-diethoxyphenyl)-4-oxobutanoyl]amino}-3-phenyl-2-thienyl)methyl]phenyl}acrylate] fall in the same range of IC50: 50 to 500 nM for the first, 50 to 500 nM for the second.

Same assay, conditions: Table 2, 25 μM dioleoylglycerol, 25 μM [14C]-Oleoyl-CoA, 32° C., 15 min, read-out: DGAT inhibitory activity (according to IC50)

CCOc1ccc(C(=O)CCC(=O)Nc2cc(-c3ccc(CCC(=O)OC)cc3)cc(-c3ccccc3)n2)cc1OCC [Example 126, methyl 3-[4-(2-{[4-(3,4-diethoxyphenyl)-4-oxobutanoyl]amino}-6-phenylpyridin-4-yl)phenyl]propanoate] and CCOc1ccc(C(=O)CCC(=O)Nc2cc(-c3ccccc3)c3ccc(Br)cc3n2)cc1OCC [Example 81, N-(7-bromo-4-phenylquinolin-2-yl)-4-(3,4-diethoxyphenyl)-4-oxobutanamide] fall in the same range of IC50: 50 to 500 nM for the first, 50 to 500 nM for the second.

First: COc1ccc(-c2cc(NC(=O)CCC(=O)c3ccc4c(c3)CCO4)nc(-c3ccccc3)c2)cc1 [Example 155, 4-(2,3-dihydro-1-benzofuran-5-yl)-N-[4-(4-methoxyphenyl)-6-phenylpyridin-2-yl]-4-oxobutanamide]
Second: O=C(CCC(=O)c1ccc2c(c1)CCO2)Nc1cc(-c2cccc(C(=O)O)c2)cc(-c2ccccc2)n1 [Example 169, 3-(2-{[4-(2,3-dihydro-1-benzofuran-5-yl)-4-oxobutanoyl]amino}-6-phenylpyridin-4-yl)benzoic acid]
The IC50 of the first is lower: 50 to 500 nM for the first, 500 to 10000 nM for the second. The first is the more potent here.

Tested on: not given
Test: not given
Settings: not given

For CCOc1ccc(C(=O)CCC(=O)Nc2sc(-c3ccccc3)nc2-c2ccccc2)cc1OCC [Example 16, 4-(3,4-diethoxyphenyl)-N-(2,4-diphenyl-1,3-thiazol-5-yl)-4-oxobutanamide], the melting point was 139 to 140 °C.
